Reference: patent US9567318B2, “Substituted pyrimidine compounds and uses thereof” (Memorial Sloan-Kettering Cancer Center, priority 2009, dated 2017)
“Also recorded” adds a separate entry of the source.

Columns and labels:
Format in all cases: cell-based, human
[1] = test system: HER2, Raf-1, Akt, Hsp70 in SKBr3 cells; experiment: Western blotting of Hsp90 onco-client proteins and Hsp70 in SKBr3 cells; details: SKBr3 cells, 24 h
Method: FIG. 3. Testing strategy for the discovery of YK5. a, b) SKBr3 cells were treated for 24 h with the indicated concentrations of inhibitors and cells were lysed for western blot (WB) analysis. β-actin was used as loading control. The data are consistent with those obtained from multiple repeat experiments (n≧3). c) The ability of the indicated inhibitors to compete with GM-Cy3B for Hsp90 binding in SKBr3 cell extracts was examined by fluorescence polarization. Values recorded in wells with added inhibitor were normalized to values read in control wells and plotted against the concentration of tested inhibitor. Drugs were assayed in triplicate. All compounds were used as DMSO stocks. Points, mean; bars, s.d. d) Growth inhibition: SKBr3 cells were incubated in triplicate with increasing concentrations of compound and growth over 72 h was assessed. Y-axis values below 0% represent cell death of the starting population. HER2 degradation was analyzed as in panel a), and gels were quantified by densitometry. Recorded values were normalized to control (vehicle only treated cells) and data graphed against YK5 concentration. Error bars represent the s.d. of the mean (n=3).
FIG. 8. […] Points, mean; bars, s.d. Yaxis values below 0% represent cell death of the starting population. c) Streptavidin beads (50 μl) were incubated with the indicated concentrations of YK55, YK56 or D-biotin to immobilize the corresponding compounds on beads. Beads (50 μl) were probed with SKBr3 cell extracts (500 μg), and the precipitated Hsp70 analyzed by western blot and quantified by […]. Results from three independent experiments were graphed to determine the relative binding affinity of YKs. Points, mean; bars, s.d. d) Structure of representative YKs. YK55 and YK56 are the biotinylated derivatives of YK54 and YK57, respectively.
FIG. 9. […] Cells were treated for 24 h with the indicated concentrations of YK149 and YK5. Cells were lysed and proteins analyzed by western blotting. b) Examples of the compounds of the present subject matter inhibit the activity of the oncogenic STAT3 in the triple-negative breast cancer cells MDA-MB-468. Cells were treated for the indicated times with compounds or vehicle and proteins analyzed by western blot. (c) Examples of the compounds of the present subject matter dose-dependently induce apoptosis in the acute myeloid leukemia cells MOLM13. Cells were treated for 24 h with the indicated concentration of compounds and the increase in caspase3,7 activity was measured and compared to only vehicle (DMSO) treated cells. Caspase-3,7 activity was a measure of compound potency in cleaving the caspase substrate Z-DEVD-R110 and releasing rhodamine. The percentage increase in apoptotic cells was calculated by comparing the fluorescence readings obtained from compounds with those obtained from vehicle (DMSO)-treated cells.
Western Blotting. Cells were grown to 60-70% confluence and treated with inhibitor or DMSO vehicle for the indicated times. Protein lysates were prepared in 50 mM Tris pH 7.4, 150 mM NaCl and 1% NP-40 lysis buffer. Protein concentrations were measured using the BCA kit (Pierce) according to the manufacturer's instructions. […]

[2] = test system: Mia-PaCa2, AsPC-1, BxPC3 and PL45 cells; experiment: Apoptosis, acridine orange/ethidium bromide, pancreatic cancer cells; details: 10 μM, 24-48 h
Method: To determine whether cell death by YK5 was attributable to apoptosis, cells were treated with YK5 and effects on morphology, as well as on several effectors and mediators of apoptosis were analyzed (FIG. 13). To quantify the number of cells undergoing apoptosis, cells were stained with acridine orange/ethidium bromide (AO/EB) and analyzed under a fluorescence microscope for the percentage of viable, apoptotic (early and late) and necrotic cells. […] Most sensitive to YK5 were pancreatic cancer cells.
Apoptosis-Acridine Orange/Ethidium Bromide. Apoptosis was determined using acridine orange/ethidium bromide (AO/EB) double staining. Acridine orange is taken up by both viable and nonviable cells and emits green fluorescence if intercalated into double stranded nucleic acid (DNA) or red fluorescence if bound to single stranded nucleic acid (RNA). Ethidium bromide is taken up only by nonviable cells and emits red fluorescence by intercalation into DNA. (1) Viable cells have uniform green nuclei with organized structure. […] Following staining with Acridine Orange and Ethidium Bromide cells were visualized with a fluorescent microscope (Zeiss Axiovert 40 CFL) and counted. Percentage of apoptotic cells was determined from 200-300 cells counted in each group.

[3] = test system: SKBr3 HER2+ breast cancer cells; experiment: Growth Inhibition Assay (Alamar blue), SKBr3; details: Homo sapiens, SK-BR-3, 72 h
Method: The IC50 values listed for some of these compounds illustrate the antiproliferative effects of the subject compounds and were obtained using the Growth Inhibition assays described herein.
Growth Inhibition Assay. Antiproliferative effects of inhibitors were evaluated using the dye Alamar blue. This reagent offers a rapid objective measure of cell viability in cell culture, and it uses the indicator dye resazurin to measure the metabolic capacity of cells, an indicator of cell viability. Briefly, cells were plated on Costar 96-well plates. For attached cells (such as SKBr3, MDA-MB-468, LNCaP, MRCS), 8,000 cells/well were used. For suspension cells (such as MOLM-13, Kasumi-1, OCI-Ly7, PBL), 20,000 cells/well were plated. Cells were allowed to incubate for 24 h at 37° C. before drug treatment. Drugs were added in triplicates at the indicated concentrations, and the plate was incubated for 72 h. Alamar Blue (440 μM) was added, and the plate read 6 h later using the Analyst GT (Fluorescence intensity mode, excitation 530 nm, emission 580 nm, with 560=dichroic mirror). Results were analyzed using the Softmax Pro software. The percentage cell growth inhibition was calculated by comparing fluorescence readings obtained from treated versus control cells, accounting for initial cell population (time zero).

Compound: C=CC(=O)Nc1cc(N)nc(Sc2c(OC)nc(N3CCN(C)CC3)nc2OC)n1 [YK5, N-(6-amino-2-(4,6-dimethoxy-2-(4-methylpiperazin-1-yl)pyrimidin-5-ylthio)pyrimidin-4-yl)acrylamide]
- feed-back induction of Hsp70 (heat shock response) [1]: undetected
- degradation of Hsp90 onco-client proteins (HER2, Raf-1, Akt) ([1]; western blot): dose-dependently reduce the steady-state levels of HER2 and Raf-1; also recorded: induced the degradation of HER2, Raf-1 and Akt kinases
- apoptosis in pancreatic cancer cells [2]: induced significant apoptosis
- IC50 [3]: 0.455 µM
